Laboratory results from PMC8589421, “Impact of Type II LRRK2 inhibitors on signaling and mitophagy” (Biochemical Journal, 2021).

Columns and labels:
[1] = test system: basal mitophagy, LRRK2 knock-out MEFs; test: mito-QC basal mitophagy in LRRK2 knock-out primary MEFs; type: cell-based, mouse; details: 24 h
Procedure: To assess mitophagy, wild type, G2019S knock in, and LRRK2 knock out primary mouse embryonic fibroblasts (MEFs) were derived, from time-mated pregnant females at E12.5 as previously described. Briefly, cells were plated on glass coverslips and incubated with DMEM (Gibco, 11960-044) supplemented with 10% FBS, 2 mM L-Glutamine (Gibco, 2503-081), 1% non-essential amino acids (Gibco, 11140-035), 1% Antibiotics (Penicillin/Streptomycin 100 U/ml penicillin and 100 µg/ml streptomycin; Gibco), and 150 µM β-Mercaptoethanol (Gibco, 21985-023) at 37°C under a humidified 5% CO2 atmosphere. […] GSK3357679A 100 nM (Ding et al., in prep) was used as a positive control. At the end of the treatment, MEFs were briefly washed twice in DPBS (Gibco, 14190-094), and fixed in 3.7% Paraformaldehyde pH 7.00 (Sigma, P6148), 200 mM HEPES, for 20 min. Cells were then washed two times with DMEM, 10 mM HEPES, and then incubated for 10 min with DMEM, 10 mM HEPES. […] Images were acquired using a Nikon Eclipse Ti-S fluorescence microscope with a 63× objective. Images were analyzed using the mito-QC counter as previously described. Experiments were performed in 3–4 independent experiments and data was analyzed with a one-way ANOVA followed by a Dunnett's multiple comparison test using the GraphPad Prism software (version 8.4.3 (686)).

Rab10 phosphorylation = Rab10 phosphorylation in primary human neutrophils; type: cell-based; details: primary human neutrophils from two donors, 45 min
Procedure: Cell extracts were mixed with a quarter of a volume of NuPage LDS Sample buffer 4× Invitrogen and heated at 95°C for 5 min. […] At the end of electrophoresis, proteins were electrophoretically transferred onto the nitrocellulose membrane (GE Healthcare, Amersham Protran Supported 0.45 µm NC) at 100 V for 90 min on ice in the transfer buffer (48 mM Tris–HCl and 39 mM glycine supplemented with 20% methanol). Transferred membrane was blocked with 5% (w/v) skim milk powder dissolved in TBS-T [20 mM Tris–HCl, pH 7.5, 150 mM NaCl and 0.1% (v/v) Tween 20] at room temperature for 1 h. The membrane was typically cropped into three pieces, namely the ‘top piece’ (from the top of the membrane to 75 kDa), the ‘middle piece’ (between 75 and 30 kDa) and the ‘bottom piece’ (from 30 kDa to the bottom of the membrane). All primary antibodies were used at 1 μg/ml final concentration and incubated in TBS-T containing 5% (by mass) bovine serum albumin with exception of α-tubulin and GAPDH antibodies that were diluted 1 : 5000 and 1 : 2000, respectively. The top piece was incubated with the indicated rabbit anti-LRRK2 phosphorylation site antibody multiplexed with mouse anti-LRRK2 C-terminus total antibody. […] Protein bands were acquired via near infrared fluorescent detection using the Odyssey CLx imaging system and quantified using the Image Studio software. […]

For `Cc1ccc(C(=O)Nc2ccc(CN3CCN(C)CC3)c(C(F)(F)F)c2)cc1C#Cc1cnc2[nH]ncc2c1` [GZD-824], the “impact on basal mitophagy in LRRK2 knock-out cells” value [1] was “neither GZD-824 or GSK3357679A impacted basal mitophagy” and the “concentration giving maximal inhibition of Rab10 phosphorylation” value (Rab10 phosphorylation) was 300 nM.
